{"source": "patent US20250295638A1", "about": "“METHODS OF TREATING ALLOGRAFT REJECTION” (Bargent Therapeutics Pty Ltd, priority 2022, published 2025)", "key": {"[1]": {"system": "heparanase (HPSE) expression in peripheral blood lymphoid cells", "assay": "Heparanase expression (ddPCR, fractional abundance of cDNA) in peripheral blood lymphoid cells of kidney transplanted rats", "format": "in vivo, rat", "settings": "day 6 after transplantation", "method": "(§1) Left orthotopic renal transplants were performed with a mean anastomosis time of 37±4 minutes using a standard technique (11), which would be well known to the skilled person. The procured kidney was perfused with 2 ml Custodial HTK solution (Chemie GMBH, Alsbach-Hähnlein, Germany) at […]. Transplanted rats were given analgesia (Carprofen 5 mg/kg every 12-24 hours subcutaneously) and a prophylactic antibiotic (Enrofloxacin 5 mg/kg SC 12 hourly) for 3 days. The transplanted kidney and blood were procured on day 6 immediately after euthanasia by CO2 asphyxiation. The kidney and blood were used for measurements of gene expression in intragraft lymphoid cells and peripheral blood mononuclear cells.\n(§2) Studies about gene expression of heparanase were performed on lymphoid cells from transplanted kidney tissue and peripheral blood on day 6 after transplantation. This time frame encompassed the period of maximum rejection at day 6.\nCastanospermine was administered by Alzet osmotic pumps (Alza Corporation, Palo Alto, United States) at an immunosuppressive dose of 150 mg/kg per day. […]\nRNA was manually extracted using the RNeasy Plus Mini Kit as per the manufacturer's instructions (Qiagen, Hilden, Germany). […] The quality of the RNA was measured using the Nanodrop 2000 (ThermoFisher Scientific, MA, USA) and quantified using the Qubit 2.0 Fluorometer (Invitrogen, MA, USA), RNA was stored at […]. […]\nCustom ddPCR assays were designed using the IDT PrimerQuest™ Tool, Prime Time qPCR assay (IDT, Singapore). […] A 25 ul reaction containing, ddPCR SuperMix for Probes (No dUTP) (Bio-Rad, Hercules, CA, USA), a hypoxanthine-guanine phosphoribosyl transferase reference control (HPRT-1) and heparanase target probes (HPSE) (IDT, Singapore). cDNA and water were created for each sample and added to a 96 well plate ready for ddPCR droplet generation. […]\nThe samples were left on the cycler for a minimum of 4 hours at 4° C. The droplets were then read on the QX200 Droplet Reader and analysed using QuantaSoft Software (Bio-Rad, Hercules, CA, USA). […]"}, "[2]": {"system": "heart allograft (PVG donor, DA recipient)", "assay": "Rat heterotopic cardiac transplantation: heart allograft survival", "format": "in vivo", "settings": "for heart allograft survival times, mean / heart allograft survival times, median: PVG-DA allograft", "method": "Inbred rat strains PVG (RT1c) (donor) and DA (RT1a) (recipient) used for heart and renal transplantation were housed under standard conditions. All procedures were approved and audited by an Animal Care and Ethics Committee in Australia.\nHeterotopic cardiac transplants were done using a standard technique (10). Cardiac function was assessed daily by abdominal palpation. The end point of cardiac transplant survival was defined as the last day of palpable heart beating. Care of all rats in this study complied with the Animal Research Act 1985 (NSW, Australia). The protocols were designed to minimise pain and discomfort to the animals. Animals were acclimatised to laboratory conditions (22° C., 12 h cycle of light and dark, 50% humidity, ad libitum access to food and water) for a minimum of 1 wk. prior to experimentation. Intragastric gavage administration was carried out with conscious animals, using curved gavage needles appropriate for animal size (250-300 gm body weight: Gauge 16, 100 mm). All transplanted rats were given post-operative analgesia (Carprofen 4 mg/kg every 12-24 h subcutaneously). They were euthanized by approved carbon dioxide asphyxiation when the heart stopped beating prior to tissue procurement.\nas §2\nCastanospermine was administered by Alzet osmotic pumps (Alza Corporation, Palo Alto, United States) at an immunosuppressive dose of 150 mg/kg per day. OGT 2115 treatment started on the first post operative day and the Castanospermine treatment started on the day of the transplant.\nAn experiment was conducted comparing heart allograft survival in 6 groups of inbred rats.\nThese tests were assessed using the Wilcoxon rank sum test procedure. The mean, median, min, max and the first and third quartiles are presented for each group, as well as the estimated difference in location parameters with 95% confidence intervals. The difference in location parameters is the median of the difference between a sample from the first group and a sample from the second group."}, "[3]": {"system": "ischaemia reperfusion injury", "settings": "reference (2); cited from earlier work"}, "[4]": {"system": "pancreatic islet allografts", "settings": "no IRI control, cited from earlier work"}, "[5]": {"system": "heparan sulphate in the renal allotransplant", "assay": "H-scores for heparan sulphate in the renal allotransplant by digital image pathology", "format": "in vivo, rat", "settings": "for H-score for heparan sulphate, estimate of difference: day 6 after transplantation", "method": "as §1\n(§3) Groups used in this study are set out in Tables 6 and 7. Comparisons were made between an isograft control treatment group (i.e., a control for ischaemia reperfusion injury), a non-treated allograft group, and Castanospermine-treated allograft group. A primary comparison was made between the non-treated group versus the Castanospermine-treated group. […]\nWhole slide digital images were acquired using an Aperio AT2 (Leica Biosystems, Wetzlar, Germany) at 20× magnification before analysis using the HALO v2.0 software (Indica laboratory, Corrales, New Mexico, USA). After selecting tissue areas, the percentage of total pixels with weak, moderate and strong staining intensity was measured using the ‘Area Quantification V1.0’ algorithm. Histology-score quantitation was calculated for each slide as H-score=(1×weak %)+(2×moderate %)+(3×strong %) providing a range from 0 to 300 (30). 4-6 sections per sample were scored at different levels through the tissue to obtain an average. […]\nThree treatment Groups were studied at day 6 after transplantation. […] H Score quantitation is calculated for each slide as H-score=(1×weak %)+(2×moderate %)+(3×strong %) giving a score ranging from 0 to 300. There were 4-6 slides per kidney sample from one rat scored (each taken at different levels through the tissue) to obtain an average for that rat. […]"}, "serum heparan sulphate": {"system": "serum heparan sulphate", "assay": "ELISA assay for serum heparan sulphate after renal allotransplantation", "format": "in vivo, rat", "settings": "combined days 2, 4, 6", "method": "as §1, §3\nSerum samples, separated from whole blood were aliquoted and stored at −80° C. […] Absorbance was immediately measured at 450 nm on a Versa Max Microplate Reader (Molecular Devices, Sunnyvale, California, USA) and the results calculated in ng/ml according to the internal standard curve. […]"}, "[6]": {"system": "heparanase (HPSE) expression in kidney transplant lymphoid cells", "assay": "Heparanase expression (ddPCR, fractional abundance of cDNA) in lymphoid cells from kidney transplants", "format": "in vivo, rat", "settings": "Cast 150 mg/kg minus Non-Treated; day 6 after transplantation", "protocol": "RNA was manually extracted using the RNeasy Plus Mini Kit as per the manufacturer's instructions (Qiagen, Hilden, Germany). […] The quality of the RNA was measured using the Nanodrop 2000 (ThermoFisher Scientific, MA, USA) and quantified using the Qubit 2.0 Fluorometer (Invitrogen, MA, USA), RNA was stored at −800 C. […]"}, "[7]": {"settings": "Group 4: OGT 2115 2.5 mg/kg subcutaneously"}, "[8]": {"settings": "Group 5: OGT 2115 5 mg/kg subcutaneously"}, "[9]": {"settings": "Group 6: 10 mg/Kg, Wilcoxon difference in location"}, "[10]": {"settings": "Group 6: OGT 2115 10 mg/kg subcutaneously"}, "[11]": {"settings": "Castanospermine (150 mg/kg per day) v Isograft"}, "[12]": {"settings": "Non-treated v Castanospermine (150 mg/kg per day)"}}, "data": [{"molecule": "O=C(O)Cc1ccc2oc(-c3ccc(NC(=O)/C=C/c4ccc(Br)cc4)c(F)c3)nc2c1", "note": "[OGT 2115]", "values": [{"measurement": "Estimated mean difference in heparanase levels (percent heparanase cDNA), peripheral blood samples", "setting": "[1]; OGT 2115 10 mg/kg minus Isograft", "result": 17.0, "unit": "%"}, {"measurement": "Estimated mean difference in heparanase levels (percent heparanase cDNA), peripheral blood samples", "setting": "[1]; OGT 2115 10 mg/kg minus Non-Treated", "result": 35.9, "unit": "%"}, {"measurement": "survival of the heart allotransplant grafts (in words)", "setting": "[2]; 2.5, 5 and 10 mg/Kg, Table 2 and FIG. 1", "result": "prolonged the survival"}, {"measurement": "heart allograft survival times, mean", "setting": "[2]; [7]", "result": 7.40, "unit": "days"}, {"measurement": "heart allograft survival times, median", "setting": "[2]; [7]", "result": 8, "unit": "days"}, {"measurement": "heart allograft survival times, mean", "setting": "[2]; [8]", "result": 7.33, "unit": "days"}, {"measurement": "heart allograft survival times, median", "setting": "[2]; [8]", "result": 7, "unit": "days"}, {"measurement": "estimated increase in survival compared to DMSO", "setting": "[2]; [9]", "result": 3, "unit": "days"}, {"measurement": "estimated increase in survival compared to Non-treated PVG-DA", "setting": "[2]; [9]", "result": 2, "unit": "days"}, {"measurement": "heart allograft survival times, mean", "setting": "[2]; [10]", "result": 9.18, "unit": "days"}, {"measurement": "heart allograft survival times, median", "setting": "[2]; [10]", "result": 9, "unit": "days"}]}, {"molecule": "Roneparstat", "values": [{"measurement": "ischaemia reperfusion injury (in words)", "setting": "[3]", "result": "curtail ischaemia reperfusion injury"}]}, {"molecule": "PI 88", "values": [{"measurement": "rejection of islet allografts (in words)", "setting": "[4]; WO 2008/046162, example 8 and FIG. 10", "result": "curtails rejection of islet allografts"}, {"measurement": "survivals of pancreatic islet allografts (in words)", "setting": "[4]; WO 2011/109877, Example 7 and FIG. 15", "result": "prolonged"}]}, {"molecule": "O[C@H]1[C@H](O)[C@@H](O)CN2CC[C@H](O)[C@H]12", "note": "[Castanospermine]", "values": [{"measurement": "H-score for heparan sulphate, estimate of difference", "setting": "[5]; [11]", "result": "−3.08"}, {"measurement": "H-score for heparan sulphate, estimate of difference", "setting": "[5]; [12]", "result": 34.78}, {"measurement": "breakdown of HSPG (in words)", "setting": "[5]; in both the allotransplant and the serum from allotransplanted rats, 150 mg/kg per day", "result": "effectively stops the breakdown of HSPG"}, {"measurement": "serum heparan sulphate levels, ratio of estimate of difference", "setting": "serum heparan sulphate; [11]", "result": 1.05}, {"measurement": "serum heparan sulphate levels, ratio of estimate of difference", "setting": "serum heparan sulphate; [12]", "result": 1.72}, {"measurement": "Estimated mean difference in heparanase levels (percent heparanase cDNA), peripheral blood samples", "setting": "[1]; Cast 150 mg/kg minus Non-Treated", "result": 22.1, "unit": "%"}, {"measurement": "Estimated mean difference in heparanase levels (percent heparanase cDNA), kidney samples", "setting": "[6]", "result": "−31.0", "unit": "%"}]}]}
